Results published in paper PMC10209615, “Pharmacological inhibition of LSD1 suppresses growth of hepatocellular carcinoma by inducing GADD45B” (MedComm, 2023).

Tests used:
Assay in all cases: Kinase activity detection (Eurofins)
Assay type in all cases: biochemical
ATM = target: T1, ATM (Homo sapiens, UniProt Q13315)
T1 construct: purchased Eurofins Pharma Discovery Services
Procedure: (§1) The activity of ZY0511 against 104 cancer‐related kinases was carried out by Eurofins Pharma Discovery Services (Celle Lévescault, France).

Aurora-A = target: T2, Aurora-A (Homo sapiens, UniProt O14965); details: ZY0511 1 µM, read-out: Inhibition rate
T2 construct: purchased Eurofins Pharma Discovery Services (KinaseProfiler)
Procedure: as §1

B-Raf = target: T3, B-Raf (Homo sapiens, UniProt P15056); details: ZY0511 1 µM, read-out: Inhibition rate
T3 construct: purchased Eurofins Pharma Discovery Services (KinaseProfiler)
Procedure: as §1

CDK1/CyclinB = target: T4, CDK1/CyclinB (Homo sapiens, UniProt P06493); details: ZY0511 1 µM, read-out: Activation rate
T4 construct: purchased Eurofins Pharma Discovery Services (KinaseProfiler)
Procedure: as §1

CDK2/cyclinA = target: T5, CDK2/cyclinA (Homo sapiens, UniProt P24941); details: ZY0511 1 µM, read-out: Inhibition rate
T5 construct: purchased Eurofins Pharma Discovery Services
Procedure: as §1

CDK5/p35 = target: T6, CDK5/p35 (Homo sapiens, UniProt Q00535); details: ZY0511 1 µM, read-out: Inhibition rate
T6 construct: purchased Eurofins Pharma Discovery Services (KinaseProfiler)
Procedure: as §1

CHK1 = target: T7, CHK1 (Homo sapiens, UniProt O14757); details: ZY0511 1 µM
T7 construct: purchased Eurofins Pharma Discovery Services (KinaseProfiler)
Procedure: as §1

CK1γ3 = target: T8, CK1γ3 (Homo sapiens, UniProt Q9Y6M4); details: ZY0511 1 µM, read-out: Inhibition rate
T8 construct: purchased Eurofins Pharma Discovery Services (KinaseProfiler)
Procedure: as §1

CSK = target: T9, CSK (Homo sapiens, UniProt P41240); details: ZY0511 1 µM, read-out: Inhibition rate
T9 construct: purchased Eurofins Pharma Discovery Services (KinaseProfiler)
Procedure: as §1

DYRK2 = target: T10, DYRK2 (Homo sapiens, UniProt Q92630); details: ZY0511 1 µM, read-out: Inhibition rate
T10 construct: purchased Eurofins Pharma Discovery Services (KinaseProfiler)
Procedure: as §1

EGFR (T790M) = target: T11, EGFR (T790M) (Homo sapiens, UniProt P00533, T790M); details: ZY0511 1 µM
T11 construct: purchased Eurofins Pharma Discovery Services (KinaseProfiler)
Procedure: as §1

EGFR (T790M, L858R) = target: T12, EGFR (T790M, L858R) (Homo sapiens, UniProt P00533, L858R/T790M); details: ZY0511 1 µM
T12 construct: purchased Eurofins Pharma Discovery Services (KinaseProfiler)
Procedure: as §1

EphA2 = target: T13, EphA2 (Homo sapiens, UniProt P29317); details: ZY0511 1 µM, read-out: Activation rate
T13 construct: purchased Eurofins Pharma Discovery Services (KinaseProfiler)
Procedure: as §1

EphA7 = target: T14, EphA7 (Rattus norvegicus, UniProt P54759); details: ZY0511 1 µM, read-out: Inhibition rate
T14 construct: purchased Eurofins Pharma Discovery Services
Procedure: as §1

ErbB2 = target: T15, ErbB2 (Homo sapiens, UniProt P04626); details: ZY0511 1 µM, read-out: Activation rate
T15 construct: purchased Eurofins Pharma Discovery Services (KinaseProfiler)
Procedure: as §1

FAK = target: T16, FAK (Homo sapiens, UniProt Q05397); details: ZY0511 1 µM, read-out: Inhibition rate
T16 construct: purchased Eurofins Pharma Discovery Services
Procedure: as §1

FGFR1 = target: T17, FGFR1 (Homo sapiens, UniProt P11362); details: ZY0511 1 µM, read-out: Activation rate
T17 construct: purchased Eurofins Pharma Discovery Services (KinaseProfiler)
Procedure: as §1

FGFR3 = target: T18, FGFR3 (Homo sapiens, UniProt P22607); details: ZY0511 1 µM, read-out: Inhibition rate
T18 construct: purchased Eurofins Pharma Discovery Services (KinaseProfiler)
Procedure: as §1

Fer = target: T19, Fer (Homo sapiens, UniProt P16591); details: ZY0511 1 µM, read-out: Inhibition rate
T19 construct: purchased Eurofins Pharma Discovery Services (KinaseProfiler)
Procedure: as §1

Fes = target: T20, Fes (Homo sapiens, UniProt P07332); details: ZY0511 1 µM, read-out: Inhibition rate
T20 construct: purchased Eurofins Pharma Discovery Services (KinaseProfiler)
Procedure: as §1

Flt1 = target: T21, Flt1 (Homo sapiens, UniProt P17948); details: ZY0511 1 µM, read-out: Inhibition rate
T21 construct: purchased Eurofins Pharma Discovery Services (KinaseProfiler)
Procedure: as §1

Flt3 = target: T22, Flt3 (Homo sapiens, UniProt P36888); details: ZY0511 1 µM, read-out: Inhibition rate
T22 construct: purchased Eurofins Pharma Discovery Services (KinaseProfiler)
Procedure: as §1

HIPK3 = target: T23, HIPK3 (Homo sapiens, UniProt Q9H422); details: ZY0511 1 µM, read-out: Inhibition rate
T23 construct: purchased Eurofins Pharma Discovery Services (KinaseProfiler)
Procedure: as §1

Hck = target: T24, Hck (Homo sapiens, UniProt P08631); details: ZY0511 1 µM, read-out: Inhibition rate
T24 construct: purchased Eurofins Pharma Discovery Services (KinaseProfiler)
Procedure: as §1

IGF-1R = target: T25, IGF-1R (Homo sapiens, UniProt P08069)
T25 construct: purchased Eurofins Pharma Discovery Services
Procedure: as §1

KDR = target: T26, KDR (Homo sapiens, UniProt P35968); details: ZY0511 1 µM, read-out: Inhibition rate
T26 construct: purchased Eurofins Pharma Discovery Services (KinaseProfiler)
Procedure: as §1

MAPK2 = target: T27, MAPK2 (Homo sapiens, UniProt P28482); details: ZY0511 1 µM, read-out: Activation rate
T27 construct: purchased Eurofins Pharma Discovery Services (KinaseProfiler)
Procedure: as §1

Mer = target: T28, Mer (Homo sapiens, UniProt Q12866); details: ZY0511 1 µM, read-out: Activation rate
T28 construct: purchased Eurofins Pharma Discovery Services (KinaseProfiler)
Procedure: as §1

PAK1 = target: T29, PAK1 (Homo sapiens, UniProt Q13153); details: ZY0511 1 µM, read-out: Activation rate
T29 construct: purchased Eurofins Pharma Discovery Services (KinaseProfiler)
Procedure: as §1

PKCµ = target: T30, PKCµ (Homo sapiens, UniProt Q15139); details: ZY0511 1 µM, read-out: Inhibition rate
T30 construct: purchased Eurofins Pharma Discovery Services
Procedure: as §1

PKCε = target: T31, PKCε (Homo sapiens, UniProt Q02156); details: ZY0511 1 µM, read-out: Inhibition rate
T31 construct: purchased Eurofins Pharma Discovery Services (KinaseProfiler)
Procedure: as §1

PKD2 = target: T32, PKD2 (Homo sapiens, UniProt Q9BZL6); details: ZY0511 1 µM, read-out: Inhibition rate
T32 construct: purchased Eurofins Pharma Discovery Services
Procedure: as §1

Pim-1 = target: T33, Pim-1 (Homo sapiens, UniProt P11309); details: ZY0511 1 µM, read-out: Inhibition rate
T33 construct: purchased Eurofins Pharma Discovery Services (KinaseProfiler)
Procedure: as §1

Ron = target: T34, Ron (Homo sapiens, UniProt Q04912); details: ZY0511 1 µM, read-out: Activation rate
T34 construct: purchased Eurofins Pharma Discovery Services (KinaseProfiler)
Procedure: as §1

Snk = target: T35, Snk (Homo sapiens, UniProt Q9NYY3); details: ZY0511 1 µM, read-out: Inhibition rate
T35 construct: purchased Eurofins Pharma Discovery Services (KinaseProfiler)
Procedure: as §1

TAK1 = target: T36, TAK1 (Homo sapiens, UniProt O43318); details: ZY0511 1 µM, read-out: Inhibition rate
T36 construct: purchased Eurofins Pharma Discovery Services
Procedure: as §1

TrkC = target: T37, TrkC (Homo sapiens, UniProt Q16288); details: ZY0511 1 µM, read-out: Inhibition rate
T37 construct: purchased Eurofins Pharma Discovery Services (KinaseProfiler)
Procedure: as §1

Yes = target: T38, Yes (Homo sapiens, UniProt P07947); details: ZY0511 1 µM, read-out: Inhibition rate
T38 construct: purchased Eurofins Pharma Discovery Services
Procedure: as §1

ZAP-70 = target: T39, ZAP-70 (Homo sapiens, UniProt P43403); details: ZY0511 1 µM, read-out: Activation rate
T39 construct: purchased Eurofins Pharma Discovery Services (KinaseProfiler)
Procedure: as §1

c-RAF = target: T40, c-RAF (Homo sapiens, UniProt P04049); details: ZY0511 1 µM, read-out: Inhibition rate
T40 construct: purchased Eurofins Pharma Discovery Services (KinaseProfiler)
Procedure: as §1

T25 sequence (P08069 31-1367, species assumed): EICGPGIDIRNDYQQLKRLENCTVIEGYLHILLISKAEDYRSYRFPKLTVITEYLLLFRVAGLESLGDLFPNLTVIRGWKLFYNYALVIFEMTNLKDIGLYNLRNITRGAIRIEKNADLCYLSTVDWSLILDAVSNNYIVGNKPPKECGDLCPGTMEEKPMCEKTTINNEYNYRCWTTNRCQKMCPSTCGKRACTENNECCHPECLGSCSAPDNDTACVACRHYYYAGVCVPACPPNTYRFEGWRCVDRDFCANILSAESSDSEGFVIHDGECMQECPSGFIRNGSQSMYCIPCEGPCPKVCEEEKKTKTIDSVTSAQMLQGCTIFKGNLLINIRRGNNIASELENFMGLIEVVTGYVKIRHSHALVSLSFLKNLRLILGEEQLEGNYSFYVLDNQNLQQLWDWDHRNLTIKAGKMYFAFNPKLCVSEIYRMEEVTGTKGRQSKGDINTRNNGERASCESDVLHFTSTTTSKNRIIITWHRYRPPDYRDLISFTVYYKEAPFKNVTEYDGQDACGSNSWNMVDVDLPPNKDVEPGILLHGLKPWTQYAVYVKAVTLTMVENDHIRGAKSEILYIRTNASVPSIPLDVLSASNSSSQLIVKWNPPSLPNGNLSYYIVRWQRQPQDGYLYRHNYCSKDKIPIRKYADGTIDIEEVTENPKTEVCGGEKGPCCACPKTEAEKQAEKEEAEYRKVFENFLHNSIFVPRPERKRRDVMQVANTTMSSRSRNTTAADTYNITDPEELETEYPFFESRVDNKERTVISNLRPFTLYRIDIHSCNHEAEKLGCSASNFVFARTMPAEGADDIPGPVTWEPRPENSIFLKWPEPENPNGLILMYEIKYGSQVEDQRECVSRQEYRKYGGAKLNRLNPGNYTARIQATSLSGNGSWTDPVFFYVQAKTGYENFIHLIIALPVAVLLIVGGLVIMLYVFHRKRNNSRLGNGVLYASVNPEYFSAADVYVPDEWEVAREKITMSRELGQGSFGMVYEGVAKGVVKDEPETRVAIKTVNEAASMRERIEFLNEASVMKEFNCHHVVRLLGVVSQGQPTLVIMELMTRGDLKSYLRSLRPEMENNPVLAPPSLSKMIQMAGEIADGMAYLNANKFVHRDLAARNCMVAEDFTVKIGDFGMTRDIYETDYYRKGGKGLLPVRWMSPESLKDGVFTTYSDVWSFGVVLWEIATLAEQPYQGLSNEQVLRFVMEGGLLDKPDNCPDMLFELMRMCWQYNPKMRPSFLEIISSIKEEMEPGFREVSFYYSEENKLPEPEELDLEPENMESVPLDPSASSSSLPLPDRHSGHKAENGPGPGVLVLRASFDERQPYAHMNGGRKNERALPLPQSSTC
T34 sequence (Q04912 25-1400): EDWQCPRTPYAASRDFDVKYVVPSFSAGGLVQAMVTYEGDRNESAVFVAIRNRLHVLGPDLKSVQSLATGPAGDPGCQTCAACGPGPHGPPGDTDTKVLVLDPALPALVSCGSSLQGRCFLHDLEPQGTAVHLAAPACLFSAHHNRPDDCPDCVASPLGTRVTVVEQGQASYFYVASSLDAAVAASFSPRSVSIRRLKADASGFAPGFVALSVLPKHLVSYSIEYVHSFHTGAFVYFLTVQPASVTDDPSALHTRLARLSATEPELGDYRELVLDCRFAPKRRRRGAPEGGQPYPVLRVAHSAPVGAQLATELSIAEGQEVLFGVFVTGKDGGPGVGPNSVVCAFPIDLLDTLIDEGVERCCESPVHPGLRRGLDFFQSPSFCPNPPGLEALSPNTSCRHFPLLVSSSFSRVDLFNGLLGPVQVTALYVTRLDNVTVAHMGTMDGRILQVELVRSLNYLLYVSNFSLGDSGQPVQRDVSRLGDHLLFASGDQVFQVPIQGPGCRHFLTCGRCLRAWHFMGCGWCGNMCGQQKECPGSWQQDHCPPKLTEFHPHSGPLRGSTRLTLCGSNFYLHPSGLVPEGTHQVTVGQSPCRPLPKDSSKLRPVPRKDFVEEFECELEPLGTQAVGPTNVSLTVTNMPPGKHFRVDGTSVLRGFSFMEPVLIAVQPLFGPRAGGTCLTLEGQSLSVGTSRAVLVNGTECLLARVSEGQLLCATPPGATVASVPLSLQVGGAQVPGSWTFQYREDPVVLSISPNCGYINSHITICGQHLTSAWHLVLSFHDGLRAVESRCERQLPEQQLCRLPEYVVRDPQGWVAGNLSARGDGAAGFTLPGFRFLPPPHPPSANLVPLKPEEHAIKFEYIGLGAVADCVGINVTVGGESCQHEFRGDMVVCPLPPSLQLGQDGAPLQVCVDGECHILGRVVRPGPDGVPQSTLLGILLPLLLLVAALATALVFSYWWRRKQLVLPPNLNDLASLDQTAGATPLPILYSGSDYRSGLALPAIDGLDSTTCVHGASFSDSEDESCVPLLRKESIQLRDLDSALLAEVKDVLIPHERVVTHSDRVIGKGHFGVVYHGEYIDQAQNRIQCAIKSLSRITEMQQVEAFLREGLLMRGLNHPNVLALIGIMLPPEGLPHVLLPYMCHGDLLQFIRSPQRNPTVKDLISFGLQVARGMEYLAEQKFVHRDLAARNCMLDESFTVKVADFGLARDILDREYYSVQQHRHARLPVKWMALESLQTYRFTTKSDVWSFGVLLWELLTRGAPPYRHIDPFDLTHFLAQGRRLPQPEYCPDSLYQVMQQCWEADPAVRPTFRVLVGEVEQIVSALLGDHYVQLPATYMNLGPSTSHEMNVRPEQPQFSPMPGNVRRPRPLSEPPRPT
T31 sequence (Q02156 whole entry): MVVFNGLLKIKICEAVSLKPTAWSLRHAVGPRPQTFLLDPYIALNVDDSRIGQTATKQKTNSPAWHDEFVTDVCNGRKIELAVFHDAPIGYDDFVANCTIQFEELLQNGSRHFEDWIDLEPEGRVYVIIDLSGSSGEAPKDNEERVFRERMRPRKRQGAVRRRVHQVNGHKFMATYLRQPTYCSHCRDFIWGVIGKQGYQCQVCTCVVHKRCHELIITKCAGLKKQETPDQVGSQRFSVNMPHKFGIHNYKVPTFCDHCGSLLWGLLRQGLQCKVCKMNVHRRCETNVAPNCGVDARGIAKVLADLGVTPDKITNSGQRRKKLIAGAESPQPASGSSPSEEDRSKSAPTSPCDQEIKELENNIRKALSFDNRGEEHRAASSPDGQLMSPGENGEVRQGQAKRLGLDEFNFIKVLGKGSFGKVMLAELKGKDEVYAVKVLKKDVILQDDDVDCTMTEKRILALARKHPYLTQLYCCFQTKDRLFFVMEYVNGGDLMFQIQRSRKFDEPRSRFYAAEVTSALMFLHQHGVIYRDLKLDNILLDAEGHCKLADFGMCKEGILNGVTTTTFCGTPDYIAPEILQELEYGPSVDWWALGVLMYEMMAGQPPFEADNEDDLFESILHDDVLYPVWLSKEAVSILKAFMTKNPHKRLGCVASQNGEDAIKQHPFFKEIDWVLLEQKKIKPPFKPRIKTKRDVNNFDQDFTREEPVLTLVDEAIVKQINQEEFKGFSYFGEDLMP
T28 sequence (Q12866 21-999): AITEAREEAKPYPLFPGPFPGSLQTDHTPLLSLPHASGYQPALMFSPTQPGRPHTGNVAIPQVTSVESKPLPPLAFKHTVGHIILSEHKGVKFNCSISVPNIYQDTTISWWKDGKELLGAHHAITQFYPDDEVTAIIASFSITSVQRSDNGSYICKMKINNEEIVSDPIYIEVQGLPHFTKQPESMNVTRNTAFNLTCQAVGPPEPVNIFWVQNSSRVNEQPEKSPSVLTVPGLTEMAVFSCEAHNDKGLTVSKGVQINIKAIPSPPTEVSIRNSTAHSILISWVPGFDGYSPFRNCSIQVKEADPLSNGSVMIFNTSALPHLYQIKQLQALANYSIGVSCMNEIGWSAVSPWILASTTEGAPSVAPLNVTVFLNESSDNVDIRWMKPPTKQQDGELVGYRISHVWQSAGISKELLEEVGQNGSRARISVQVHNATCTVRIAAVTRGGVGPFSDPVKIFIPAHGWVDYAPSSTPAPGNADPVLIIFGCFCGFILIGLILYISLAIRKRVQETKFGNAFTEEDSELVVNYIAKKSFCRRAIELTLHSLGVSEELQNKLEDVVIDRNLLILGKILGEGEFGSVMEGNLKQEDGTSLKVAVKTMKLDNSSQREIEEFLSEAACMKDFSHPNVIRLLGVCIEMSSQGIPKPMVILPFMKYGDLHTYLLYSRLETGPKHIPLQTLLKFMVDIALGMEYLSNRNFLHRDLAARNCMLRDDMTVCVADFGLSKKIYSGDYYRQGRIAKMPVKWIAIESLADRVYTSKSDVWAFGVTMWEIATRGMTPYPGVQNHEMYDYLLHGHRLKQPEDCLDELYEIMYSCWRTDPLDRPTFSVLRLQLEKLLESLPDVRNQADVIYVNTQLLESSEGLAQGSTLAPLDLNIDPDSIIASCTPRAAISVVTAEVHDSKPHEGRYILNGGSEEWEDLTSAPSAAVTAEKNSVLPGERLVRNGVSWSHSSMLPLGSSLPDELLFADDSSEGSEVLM
T38 sequence (P07947 whole entry, species assumed): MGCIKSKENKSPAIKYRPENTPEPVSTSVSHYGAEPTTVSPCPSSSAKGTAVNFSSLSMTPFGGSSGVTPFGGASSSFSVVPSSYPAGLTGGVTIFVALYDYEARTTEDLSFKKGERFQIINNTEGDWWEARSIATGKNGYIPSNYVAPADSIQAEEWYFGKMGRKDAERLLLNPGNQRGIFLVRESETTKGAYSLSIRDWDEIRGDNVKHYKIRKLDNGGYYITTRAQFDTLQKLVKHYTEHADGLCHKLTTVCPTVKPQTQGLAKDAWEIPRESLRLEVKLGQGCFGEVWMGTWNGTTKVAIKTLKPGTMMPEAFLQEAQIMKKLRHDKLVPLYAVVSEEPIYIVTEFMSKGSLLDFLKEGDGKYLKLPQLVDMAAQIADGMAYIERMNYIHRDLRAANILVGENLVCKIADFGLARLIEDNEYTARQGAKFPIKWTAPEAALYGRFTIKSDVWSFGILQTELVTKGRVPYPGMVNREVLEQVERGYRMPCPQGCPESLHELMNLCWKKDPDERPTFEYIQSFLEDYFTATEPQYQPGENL

How did the IC50 (ATM) turn out when `O=C(N/N=C1\CCc2c(Cl)ccc(O)c21)c1cccc(S(=O)(=O)N2CCOCC2)c1` [ZY0511, (E)‐N'‐(2, 3‐dihydro‐1H‐inden‐1‐ylidene) benzohydrazides] was run?
Its IC50 is 9.8 µM.

What about the inhibition at 1 µM (Aurora-A) of the same molecule?
The inhibition at 1 µM was 17%.

What about the inhibition at 1 µM (B-Raf) of the same molecule?
The inhibition at 1 µM was 29%.

What about the activation at 1 µM (CDK1/CyclinB) of the same molecule?
Its activation at 1 µM is 3%.

What about the inhibition at 1 µM (CDK2/cyclinA) of the same molecule?
The inhibition at 1 µM was 10%.

And the inhibition at 1 µM (CDK5/p35)?
The inhibition at 1 µM was 9%.

And the Activation rate (CHK1)?
Its Activation rate is 1%.

And the inhibition at 1 µM (CK1γ3)?
Its inhibition at 1 µM is 21%.

What about the inhibition at 1 µM (CSK) of the same molecule?
The inhibition at 1 µM was 4%.

And the inhibition at 1 µM (DYRK2)?
The inhibition at 1 µM was 5%.

And the Activation rate (EGFR (T790M))?
The Activation rate was 5%.

What about the Activation rate (EGFR (T790M, L858R)) of the same molecule?
Its Activation rate is 2%.

And the activation at 1 µM (EphA2)?
The activation at 1 µM was 5%.

What about the inhibition at 1 µM (EphA7) of the same molecule?
The inhibition at 1 µM was 2%.

What about the activation at 1 µM (ErbB2) of the same molecule?
Its activation at 1 µM is 25%.

And the inhibition at 1 µM (FAK)?
The inhibition at 1 µM was 3%.

And the activation at 1 µM (FGFR1)?
The activation at 1 µM was 1%.

What about the inhibition at 1 µM (FGFR3) of the same molecule?
Its inhibition at 1 µM is 20%.

And the inhibition at 1 µM (Fer)?
The inhibition at 1 µM was 47%.

What about the inhibition at 1 µM (Fes) of the same molecule?
Its inhibition at 1 µM is 24%.

And the inhibition at 1 µM (Flt1)?
The inhibition at 1 µM was 20%.

What about the inhibition at 1 µM (Flt3) of the same molecule?
Its inhibition at 1 µM is 8%.

And the inhibition at 1 µM (HIPK3)?
Its inhibition at 1 µM is 6%.

What about the inhibition at 1 µM (Hck) of the same molecule?
The inhibition at 1 µM was 29%.

What about the activation at 1 µM (IGF-1R; IGF-1R, ZY0511 1 µM, read-out: Activation rate) of the same molecule?
Its activation at 1 µM is 185%.

What about the IC50 (IGF-1R; IGF‐1R) of the same molecule?
Its IC50 is over 10 µM.

What about the inhibition at 1 µM (KDR) of the same molecule?
Its inhibition at 1 µM is 30%.

What about the activation at 1 µM (MAPK2) of the same molecule?
The activation at 1 µM was 16%.

What about the activation at 1 µM (Mer) of the same molecule?
The activation at 1 µM was 2%.

What about the activation at 1 µM (PAK1) of the same molecule?
The activation at 1 µM was 1%.

What about the inhibition at 1 µM (PKCµ) of the same molecule?
Its inhibition at 1 µM is 10%.

And the inhibition at 1 µM (PKCε)?
The inhibition at 1 µM was 8%.

And the inhibition at 1 µM (PKD2)?
Its inhibition at 1 µM is 2%.

What about the inhibition at 1 µM (Pim-1) of the same molecule?
Its inhibition at 1 µM is 15%.

And the activation at 1 µM (Ron)?
Its activation at 1 µM is 7%.

What about the inhibition at 1 µM (Snk) of the same molecule?
The inhibition at 1 µM was 4%.

What about the inhibition at 1 µM (TAK1) of the same molecule?
The inhibition at 1 µM was 1%.

And the inhibition at 1 µM (TrkC)?
Its inhibition at 1 µM is 7%.

What about the inhibition at 1 µM (Yes) of the same molecule?
Its inhibition at 1 µM is 0%.

And the activation at 1 µM (ZAP-70)?
Its activation at 1 µM is 4%.

What about the inhibition at 1 µM (c-RAF) of the same molecule?
The inhibition at 1 µM was 43%.
